Results as given in patent US20240336604A1 (THE UNITED STATES OF AMERICA, AS REPRESENTED BY THE …, priority 2021, published 2024).

Assays:
Type in all cases: cell-based
D3 DAR [1] = molecular target: T1, D3 DAR (Homo sapiens, UniProt P35462); test: Go BRET activation assay, D3 DAR; conditions: EC80 DA (30 nM); for Emax: 5 min, read-out: D3 Go BRET Imax
Procedure: Briefly, HEK293T cells transiently expressing either the D2 DAR or D3 DAR and GαoA-Rluc8, untagged-β1, and mVenus-γ2 were harvested with EBSS, plated in 96-well white plates at 20,000 cells/well in DPBS and incubated at RT for 45 min. […] BRET signal was determined by quantifying and calculating the ratio of the light emitted by mVenus (525 nm) over that emitted by RLuc8 (485 nm) using a PHERAstar FSX Microplate Reader (BMG Labtech).

D2 DAR = D2 DAR (Homo sapiens, UniProt P14416); test: DiscoverX D2 DAR β-arrestin recruitment assay; set-up: host or cells: CHO; conditions: EC80 concentration of DA (1 μM)
D2 DAR, sequence (P14416 whole entry, the tested form may be a part): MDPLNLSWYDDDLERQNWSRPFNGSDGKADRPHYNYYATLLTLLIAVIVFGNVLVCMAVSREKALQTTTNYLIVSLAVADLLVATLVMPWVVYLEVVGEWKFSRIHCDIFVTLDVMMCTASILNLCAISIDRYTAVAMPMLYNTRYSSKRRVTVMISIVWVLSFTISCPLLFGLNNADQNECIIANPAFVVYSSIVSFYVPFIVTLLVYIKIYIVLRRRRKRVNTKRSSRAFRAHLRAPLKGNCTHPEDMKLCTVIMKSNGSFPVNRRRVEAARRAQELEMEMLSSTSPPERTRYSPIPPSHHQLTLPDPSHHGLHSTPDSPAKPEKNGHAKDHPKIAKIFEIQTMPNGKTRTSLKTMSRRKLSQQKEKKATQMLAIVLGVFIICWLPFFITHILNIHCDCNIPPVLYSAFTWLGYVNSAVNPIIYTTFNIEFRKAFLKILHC
Source text: For a secondary-screen and selectivity assays, DAR PathHunter®-arrestin GPCR cell lines from DiscoverX (Fremont, CA) were used. In the D2 DAR PathHunter®-arrestin GPCR cell line, the D2 DAR is overexpressed and fused with a small 42-amino acid fragment of β-galactosidase called ProLink™ on a CHO cellular background expressing a fusion protein of β-arrestin and a larger N-terminal deletion mutant of β-galactosidase (“enzyme acceptor”). When the D2 DAR is activated by dopamine, it stimulates binding of β-arrestin to the ProLink-tagged DAR and the two complementary parts of β-galactosidase form a functional enzyme. When substrate (PathHunter™ Detection reagent) is added, β-galactosidase hydrolyzes it and generates a chemiluminescent signal.

D3 DAR [2] = molecular target: T1, D3 DAR; test: DiscoverX D3 DAR β-arrestin recruitment assay; set-up: host or cells: CHO; conditions: for IC50: EC80 concentration of DA (30 nM), read-out: D3 DAR IC50; for D3 DAR Imax / Emax: Imax=maximum inhibition, EC80 DA (30 nM)
Source text: A D3 DAR β-arrestin cell line from DiscoverX (Fremont, CA) was used as described in the protocol below (Table 2). A CHO cell line engineered to overexpress the D3 DAR fused with a small 42-amino acid fragment of β-galactosidase called ProLink™ and a fusion protein consisting of β-arrestin and a larger N-terminal deletion mutant of β-galactosidase was used (DiscoverX catalogue number 93-0579C2). When the D3 DAR is activated by dopamine, it stimulates binding of β-arrestin to ProLink-tagged D3 DARs, and the two complementary parts of β-galactosidase form a functional enzyme. When substrate (PathHunter® Detection reagent, DiscoverX 93-0001) is added, β-galactosidase hydrolyzes it and generates a chemiluminescent signal.

T1 sequence (P35462 whole entry): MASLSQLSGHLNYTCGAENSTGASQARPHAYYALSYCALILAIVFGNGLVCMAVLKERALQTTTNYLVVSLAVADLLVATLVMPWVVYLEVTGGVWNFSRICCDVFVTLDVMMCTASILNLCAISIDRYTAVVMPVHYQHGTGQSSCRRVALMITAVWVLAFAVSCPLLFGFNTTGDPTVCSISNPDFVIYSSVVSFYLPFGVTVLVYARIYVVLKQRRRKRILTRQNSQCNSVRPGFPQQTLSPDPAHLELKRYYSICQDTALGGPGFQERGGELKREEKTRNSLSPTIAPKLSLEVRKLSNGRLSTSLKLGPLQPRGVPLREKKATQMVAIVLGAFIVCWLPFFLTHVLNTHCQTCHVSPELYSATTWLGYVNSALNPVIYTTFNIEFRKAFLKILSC

Row | Compound | Emax (D3 DAR [1]) [%] | IC50 (D3 DAR [1]) [µM] | D2 DAR Imax (D2 DAR) | IC50 (D2 DAR) [µM] | IC50 (D3 DAR [2]) [µM] | Emax (D3 DAR [2]) [%] | D3 DAR Imax (D3 DAR [2]) | D3 Go BRET Imax (D3 DAR [1])
1 | CCOC(=O)C1=NOC2(C1)C(=O)Nc1ccc(OC(F)(F)F)cc12 (stereo not drawn) [compound 45] | – | – | NA (“NA” indicates not active) | > 100 | 10 to 50 | – | + (A “+” is used to denote compounds with D3 DAR Imax (Imax=maximum inhibition) between 80% to 100%) | –
2 | Cc1[nH]c(C)c(S(=O)(=O)Nc2cc(Cl)c(C(F)(F)F)c(Cl)c2)c1C(=O)N1CCC(F)(F)C1 [compound 35, N-(3,5-dichloro-4-(trifluoromethyl)phenyl)-4-(3,3-difluoropyrrolidine-1-carbonyl)-2,5-dimethyl-1H-pyrrole-3-sulfonamide] | 80 to 100 | < 1 | NA (“NA” indicates not active) | > 100 | < 10 | 80 to 100 | – | –
3 | N-(3-choro-4-methylphenyl)-2,5-dimethyl-4-(pyrrolidine-1-carbonyl)-1H-pyrrole-3-sulfonamide [compound 31] | – | 10 to 50 | Curve Incomplete | > 100 | > 100 | – | Curve Incomplete | ++ (a “++” indicates a detectable Imax of more than 100%, indicative of possible inverse agonist activity)
4 | Cc1[nH]c(C)c(S(=O)(=O)N2CCC(F)(F)C2)c1C(=O)Nc1ccc(C(F)(F)F)c(Cl)c1 [compound 24] | – | > 50 | NA (“NA” indicates not active) | > 100 | 50 to 100 | – | Curve Incomplete | –
5 | CCOC(=O)C1=NOC2(C1)C(=O)Nc1ccc(OC(F)(F)F)cc12 (stereo not drawn) [compound 44] | – | > 50 | NA (“NA” indicates not active) | > 100 | < 10 | 80 to 100 | – | NA (NA means not active)
6 | Cc1[nH]c(C)c(S(=O)(=O)Nc2cc(Cl)c(C(F)(F)F)cc2Br)c1C(=O)N1CCC(F)(F)C1 [compound 41, N-(2-bromo-5-chloro-4-(trifluoromethyl)phenyl)-4-(3,3-difluoropyrrolidine-1-carbonyl)-2,5-dimethyl-1H-pyrrole-3-sulfonamide] | – | – | NA (“NA” indicates not active) | > 100 | < 10 | 80 to 100 | – | –
7 | CCNC(=O)c1c(C)[nH]c(C)c1S(=O)(=O)Nc1ccc(C(F)(F)F)c(Cl)c1 [compound 33, 4-(N-(3-chloro-4-(trifluoromethyl)phenyl)sulfamoyl)-N-ethyl-2,5-dimethyl-1H-pyrrole-3-carboxamide] | > 100 | 10 to 50 | NA (“NA” indicates not active) | > 100 | < 10 | 80 to 100 | – | –
8 | O=C(c1c(S(=O)(=O)Nc2ccc(C(F)(F)F)c(Cl)c2)c[nH]c1C(F)(F)F)N1CCCC1 [compound 37] | – | > 50 | NA (“NA” indicates not active) | > 100 | 10 to 50 | 80 to 100 | – | –
9 | Cc1[nH]c(C)c(S(=O)(=O)Nc2ccc(C(F)(F)F)c(Cl)c2)c1C(=O)N(C)C [compound 21, 4-(n-(3-chloro-4-(trifluoromethyl)phenyl)sulfamoyl)-N,N,2,5-tetramethyl-1H-pyrrole-3-carboxamide] | > 100 | 10 to 50 | NA (“NA” indicates not active) | > 100 | < 10 | 80 to 100 | – | –
10 | Cc1[nH]c(C)c(S(=O)(=O)Nc2ccc(S(F)(F)(F)(F)F)cc2)c1C(=O)N1CCC(F)(F)C1 [compound 28] | 80 to 100 | 1 to 10 | NA (“NA” indicates not active) | > 100 | < 10 | 80 to 100 | – | –
11 | N-(3-chloro-4-(trifluoromethyl)phenyl)-2,5-dimethyl-4-(morpholine-4-carbonyl)-1H-pyrrole-3-sulfonamide [compound 30] | – | – | NA (“NA” indicates not active) | > 100 | > 100 | – | Curve Incomplete | –
12 | Cc1[nH]c(C)c(S(=O)(=O)Nc2cc(Cl)cc(C(F)(F)F)c2)c1C(=O)N1CCC(F)(F)C1 [compound 40, N-(3-chloro-5-(trifluoromethyl)phenyl)-4-(3,3-difluoropyrrolidine-1-carbonyl)-2,5-dimethyl-1H-pyrrole-3-sulfonamide] | > 100 | 10 to 50 | NA (“NA” indicates not active) | > 100 | 10 to 50 | 80 to 100 | – | –

Further lines, with some results ahead:

Row | Emax (D3 DAR [1]) [%] | IC50 (D3 DAR [1]) [µM] | D2 DAR Imax (D2 DAR) | IC50 (D2 DAR) [µM] | IC50 (D3 DAR [2]) [µM] | Emax (D3 DAR [2]) [%] | Compound | D3 DAR Imax (D3 DAR [2]) | D3 Go BRET Imax (D3 DAR [1])
13 | > 100 | 1 to 10 | NA (“NA” indicates not active) | > 100 | > 100 | – | Cc1[nH]c(C)c(S(=O)(=O)Nc2ccc(F)cc2)c1C(=O)N1CCCC1 [compound 32] | Curve Incomplete | –
14 | > 100 | 10 to 50 | NA (“NA” indicates not active) | > 100 | 10 to 50 | 80 to 100 | Cc1[nH]c(C)c(S(=O)(=O)Nc2ccc(F)c(Cl)c2)c1C(=O)N1CCCC1 [compound 13] | – | –
15 | > 100 | 10 to 50 | NA (“NA” indicates not active) | > 100 | 10 to 50 | 80 to 100 | Cc1ccc(NS(=O)(=O)c2c(C)[nH]c(C)c2C(=O)N2CCC(F)(F)C2)cc1Cl [Cmp. 2] | – | –
16 | – | > 50 | NA (“NA” indicates not active) | > 100 | 50 to 100 | – | Cc1[nH]c(C)c(S(=O)(=O)Nc2ccc(C(F)(F)F)c(Cl)c2)c1C(=O)N1CCNCC1.Cl [compound 20, N-(3-chloro-4-(trifluoromethyl)phenyl)-2,5-dimethyl-4-(piperazine-1-carbonyl)-1H-pyrrole-3-sulfonamide] | Curve Incomplete | –
17 | > 100 | 10 to 50 | NA (“NA” indicates not active) | > 100 | 50 to 100 | 80 to 100 | Cc1[nH]c(C)c(S(=O)(=O)Nc2ccc(C(F)(F)F)c(Cl)c2)c1C(=O)N1CCN(C(=O)OC(C)(C)C)CC1 [compound 19, tert-butyl 4-(4-(N-(3-chloro-4-(trifluoromethyl)phenyl)sulfamoyl)-2,5-dimethyl-1H-pyrrole-3-carbonyl)piperazine-1-carboxylate] | – | –
18 | 80 to 100 | 10 to 50 | NA (“NA” indicates not active) | > 100 | < 10 | 80 to 100 | CCc1ccc(NS(=O)(=O)c2c(C)[nH]c(C)c2C(=O)N2CCCC2)cc1 [compound 15] | – | –
19 | > 100 | 10 to 50 | NA (“NA” indicates not active) | > 100 | 10 to 50 | 80 to 100 | Cc1ccc(NS(=O)(=O)c2c(C)[nH]c(C)c2C(=O)N2CCC2)cc1Cl [compound 6] | – | –
20 | 80 to 100 | 1 to 10 | NA (“NA” indicates not active) | > 100 | 10 to 50 | 80 to 100 | Cc1[nH]c(C)c(S(=O)(=O)Nc2ccc(C3CC3)c(Cl)c2)c1C(=O)N1CCC(F)(F)C1 [compound 36, N-(3-chloro-4-cyclopropylphenyl)-4-(3,3-difluoropyrrolidine-1-carbonyl)-2,5-dimethyl-1H-pyrrole-3-sulfonamide] | – | –
21 | > 100 | 1 to 10 | NA (“NA” indicates not active) | > 100 | 10 to 50 | 80 to 100 | Cc1ccc(NS(=O)(=O)c2c(C)[nH]c(C)c2C(=O)N2CCCC2C)cc1Cl (stereo not drawn) [compound 3] | – | –
22 | > 100 | 10 to 50 | NA (“NA” indicates not active) | > 100 | 10 to 50 | 80 to 100 | Cc1ccc(NS(=O)(=O)c2c(C)[nH]c(C)c2C(=O)N2CCCC2)cc1F [compound 16] | – | –
23 | > 100 | 1 to 10 | NA (“NA” indicates not active) | > 100 | 10 to 50 | 80 to 100 | CCc1[nH]c(CC)c(S(=O)(=O)Nc2ccc(C(F)(F)F)c(Cl)c2)c1C(=O)N1CCCC1 [compound 39, N-(3-chloro-4-(trifluoromethyl)phenyl)-2,5-diethyl-4-(pyrrolidine-1-carbonyl)-1H-pyrrole-3-sulfonamide] | – | –
24 | > 100 | 10 to 50 | NA (“NA” indicates not active) | > 100 | 10 to 50 | 80 to 100 | Cc1ccc(NS(=O)(=O)c2c(C)[nH]c(C)c2C(=O)N2CCCCC2)cc1Cl [compound 11] | – | –
